Article PMC8286840, “Identifying SARS-CoV-2 antiviral compounds by screening for small molecule inhibitors of Nsp3 papain-like protease” (Biochemical Journal, 2021)
Structures can show the parent of a compound that is named as a salt. Where two headings read alike, the source gives them in different places.

How the values were obtained:
[1] = biological target: T1, SARS-CoV-2 PLpro (nsp3 1564–1878) (Severe acute respiratory syndrome coronavirus 2, UniProt P0DTD1); assay: biochemical; set-up: FRET-quenched peptide (Pro3) cleavage by PLpro, 10 min pre-incubation, slope over 20 min, normalised to no-compound control; details: high concentration screen, read-out: % of control remaining
[2] = biological target: T1, SARS-CoV-2 PLpro (nsp3 1564–1878); assay: biochemical; set-up: FRET-quenched peptide (Pro3) cleavage by PLpro, 10 min pre-incubation, slope over 20 min, normalised to no-compound control; details: low concentration screen, read-out: % of control remaining

## CCCc1ncc(C[n+]2ccccc2C)c(N)n1 [Amprolium HCl]
[1]; Well no.=8588
  remaining activity at 3.75 µM: 108%
[2]; Well no.=8588
  remaining activity at 1.25 µM: 106%

## COc1cc(NS(C)(=O)=O)ccc1Nc1c2ccccc2nc2ccccc12 [Amsacrine hydrochloride]
[1]; Well no.=346
  remaining activity at 3.75 µM: 103%
[2]; Well no.=346
  remaining activity at 1.25 µM: 97.8%

## N#C[C@H](O[C@@H]1O[C@H](CO[C@@H]2O[C@H](CO)[C@@H](O)[C@H](O)[C@H]2O)[C@@H](O)[C@H](O)[C@H]1O)c1ccccc1 [Amygdalin]
[1]; Well no.=3472
  remaining activity at 3.75 µM: 102%
[2]; Well no.=3472
  remaining activity at 1.25 µM: 100%

## COc1cc(F)c(C(C)C)cc1-c1ccc(C(F)(F)F)cc1CN1C(=O)O[C@H](c2cc(C(F)(F)F)cc(C(F)(F)F)c2)[C@@H]1C [Anacetrapib (MK-0859)]
[1]; Well no.=5312
  remaining activity at 3.75 µM: 93.1%
[2]; Well no.=5312
  remaining activity at 1.25 µM: 94.2%

## O=C1CN2Cc3c(ccc(Cl)c3Cl)N=C2N1 [Anagrelide HCl]
[1]; Well no.=5022
  remaining activity at 3.75 µM: 99%
[2]; Well no.=5022
  remaining activity at 1.25 µM: 93.8%

## O=C1CN2Cc3c(ccc(Cl)c3Cl)N=C2N1 [Anagrelide]
[1]; Well no.=1629
  remaining activity at 3.75 µM: 97.6%
[2]; Well no.=1629
  remaining activity at 1.25 µM: 95.8%

## CN(C)N(C)C(=O)[C@@]1(Cc2ccccc2)CCCN(C(=O)[C@@H](Cc2c[nH]c3ccccc23)NC(=O)C(C)(C)N)C1 [Anamorelin (hydrochloride)]
[1]; Well no.=7291
  remaining activity at 3.75 µM: 97.8%
[2]; Well no.=7291
  remaining activity at 1.25 µM: 98.3%

## CN(C)N(C)C(=O)[C@@]1(Cc2ccccc2)CCCN(C(=O)[C@@H](Cc2c[nH]c3ccccc23)NC(=O)C(C)(C)N)C1 [Anamorelin]
[1]; Well no.=8437
  remaining activity at 3.75 µM: 96.9%
[2]; Well no.=8437
  remaining activity at 1.25 µM: 97.3%

## CCCCC/C=C\C/C=C\C/C=C\C/C=C\CCCC(=O)NCCO [Anandamide (20:4, n-6)]
[1]; Well no.=4290
  remaining activity at 3.75 µM: 93%
[2]; Well no.=4290
  remaining activity at 1.25 µM: 99.3%

## CC(C)(C#N)c1cc(Cn2cncn2)cc(C(C)(C)C#N)c1 [Anastrozole]
[1]; Well no.=1858
  remaining activity at 3.75 µM: 102%
[2]; Well no.=1858
  remaining activity at 1.25 µM: 101%

## N=c1ccn2c(n1)O[C@H]1[C@H](O)[C@@H](CO)O[C@H]12 [Ancitabine hydrochloride]
[1]; Well no.=294
  remaining activity at 3.75 µM: 93.7%
[2]; Well no.=294
  remaining activity at 1.25 µM: 98.8%

## CC(=O)Nc1ccc(OC[C@](C)(O)C(=O)Nc2ccc([N+](=O)[O-])c(C(F)(F)F)c2)cc1 [Andarine (GTX-007)]
[1]; Well no.=5053
  remaining activity at 3.75 µM: 104%
[2]; Well no.=5053
  remaining activity at 1.25 µM: 102%

## C=C1CC[C@@H]2[C@](C)(CO)[C@H](O)CC[C@@]2(C)[C@@H]1C/C=C1/C(=O)OC[C@H]1O [Andrographolide]
[1]; Well no.=3435
  remaining activity at 3.75 µM: 96.9%
[2]; Well no.=3435
  remaining activity at 1.25 µM: 93.4%

## C[C@]12CC[C@@H](O)C[C@@H]1CC[C@@H]1[C@@H]2CC[C@]2(C)C(=O)CC[C@@H]12 [Androsterone]
[1]; Well no.=298
  remaining activity at 3.75 µM: 99.3%
[1]; Well no.=6435
  remaining activity at 3.75 µM: 97.6%
[2]; Well no.=298
  remaining activity at 1.25 µM: 98.5%
[2]; Well no.=6435
  remaining activity at 1.25 µM: 99.9%

## COc1ccc(-c2cc(=S)ss2)cc1 [Anethole trithione]
[1]; Well no.=4132
  remaining activity at 3.75 µM: 96.6%
[2]; Well no.=4132
  remaining activity at 1.25 µM: 93.9%

## C/C=C/c1ccc(OC)cc1 [Anethole, trans-]
[1]; Well no.=1916
  remaining activity at 3.75 µM: 95.1%
[2]; Well no.=1916
  remaining activity at 1.25 µM: 97.9%

## COc1ccc(-c2cc(=S)ss2)cc1 [Anethole-trithione]
[1]; Well no.=1856
  remaining activity at 3.75 µM: 92.4%
[2]; Well no.=1856
  remaining activity at 1.25 µM: 91.9%

## CC[C@H](C)[C@H](NC(=O)[C@H](Cc1ccc(O)cc1)NC(=O)[C@@H](NC(=O)[C@H](CCCNC(=N)N)NC(=O)[C@@H](N)CC(=O)O)C(C)C)C(=O)N[C@@H](Cc1c[nH]cn1)C(=O)N1CCC[C@H]1C(=O)O [Angiotensin (1-7)]
[1]; Well no.=6176
  remaining activity at 3.75 µM: 96.5%
[1]; Well no.=8368
  remaining activity at 3.75 µM: 96.1%
[2]; Well no.=6176
  remaining activity at 1.25 µM: 96.1%
[2]; Well no.=8368
  remaining activity at 1.25 µM: 99.7%

## CC[C@H](C)[C@H](NC(=O)[C@H](Cc1ccc(O)cc1)NC(=O)[C@@H](NC(=O)[C@H](CCCNC(=N)N)NC(=O)[C@@H](N)CC(=O)O)C(C)C)C(=O)N[C@@H](Cc1cnc[nH]1)C(=O)N1CCC[C@H]1C(=O)N[C@@H](Cc1ccccc1)C(=O)O [Angiotensin II human]
[1]; Well no.=8345
  remaining activity at 3.75 µM: 97.1%
[2]; Well no.=8345
  remaining activity at 1.25 µM: 93.9%

## COc1ccc(C(=O)N2CCCC2=O)cc1 [Aniracetam]
[1]; Well no.=156
  remaining activity at 3.75 µM: 108%
[1]; Well no.=1889
  remaining activity at 3.75 µM: 95.2%
[2]; Well no.=156
  remaining activity at 1.25 µM: 102%
[2]; Well no.=1889
  remaining activity at 1.25 µM: 95.1%

## CN1[C@H]2C[C@H](OC(=O)[C@H](CO)c3ccccc3)C[C@@H]1[C@@H](O)C2 [Anisodamine]
[1]; Well no.=3474
  remaining activity at 3.75 µM: 92.3%
[2]; Well no.=3474
  remaining activity at 1.25 µM: 96.3%

## Cn1cncc1C[C@H](NC(=O)CCN)C(=O)O [Anserine]
[1]; Well no.=6581
  remaining activity at 3.75 µM: 103%
[1]; Well no.=7890
  remaining activity at 3.75 µM: 95.1%
[2]; Well no.=6581
  remaining activity at 1.25 µM: 102%
[2]; Well no.=7890
  remaining activity at 1.25 µM: 91.9%

## c1ccc(CN(CC2=NCCN2)c2ccccc2)cc1 [Antazoline (hydrochloride)]
[1]; Well no.=7425
  remaining activity at 3.75 µM: 102%
[2]; Well no.=7425
  remaining activity at 1.25 µM: 112%

## CNc1ccc2oc(C[C@H]3O[C@@]4(CC[C@H]3C)O[C@H]([C@H](C)C(=O)c3ccc[nH]3)[C@H](C)C[C@H]4C)nc2c1C(=O)O [Antibiotic A-23187]
[1]; Well no.=3079
  remaining activity at 3.75 µM: 104%
[2]; Well no.=3079
  remaining activity at 1.25 µM: 103%

## CCCCCC[C@H]1C(=O)O[C@H](C)[C@H](NC(=O)c2cccc(NC=O)c2O)C(=O)O[C@@H](C)[C@@H]1OC(=O)CC(C)C [Antimycin A1]
[1]; Well no.=3158
  remaining activity at 3.75 µM: 98.6%
[2]; Well no.=3158
  remaining activity at 1.25 µM: 98.9%

## Cc1cc(=O)n(-c2ccccc2)n1C [Antipyrine]
[1]; Well no.=5024
  remaining activity at 3.75 µM: 100%
[2]; Well no.=5024
  remaining activity at 1.25 µM: 96.5%

## c1ccc(CN(Cc2ncc[nH]2)c2ccccc2)cc1 [Antozoline hydrochloride]
[1]; Well no.=108
  remaining activity at 3.75 µM: 103%
[2]; Well no.=108
  remaining activity at 1.25 µM: 101%

## N#CC1(c2ccc(NC(=O)c3cccnc3NCc3ccncc3)cc2)CCCC1 [Apatinib (YN968D1)]
[1]; Well no.=5156
  remaining activity at 3.75 µM: 102%
[2]; Well no.=5156
  remaining activity at 1.25 µM: 101%

## C[C@@]1(CO)[C@H](O)CC[C@@]2(C)[C@H]1CC[C@H]1C[C@@H]3C[C@@]12CC[C@]3(O)CO [Aphidicolin]
[1]; Well no.=3476
  remaining activity at 3.75 µM: 101%
[2]; Well no.=3476
  remaining activity at 1.25 µM: 104%

## O=c1cc(-c2ccc(O)cc2)oc2cc(O[C@@H]3O[C@H](CO)[C@@H](O)[C@H](O)[C@H]3O)cc(O)c12 [Apigenin-7-glucoside]
[1]; Well no.=3635
  remaining activity at 3.75 µM: 93.3%
[2]; Well no.=3635
  remaining activity at 1.25 µM: 97.8%
